Laboratory results from ChEMBL document CHEMBL1909046, “DrugMatrix in vitro pharmacology data”.

How the values were obtained:
[1] = DRUGMATRIX: Purinergic P2X radioligand binding (ligand: [3H] alpha, beta-Methylene-ATP); format: cell membranes, Oryctolagus cuniculus, New Zealand albino, Urinary bladder, Membrane; conditions: Not Active = under 50% inhibition at 10 µM
[2] = target: T1, Polyunsaturated fatty acid lipoxygenase ALOX15 (Oryctolagus cuniculus, UniProt P12530); assay: biochemical; format: tissue-based, Reticulocytes; conditions: reticulocytes;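 note: inhibition of 15-lipoxygenase enzyme activity measured with linoleic acid as the substrate; in other assays of this panel Not Active means under 50% inhibition at 10 µM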
T1 sequence (P12530 whole entry): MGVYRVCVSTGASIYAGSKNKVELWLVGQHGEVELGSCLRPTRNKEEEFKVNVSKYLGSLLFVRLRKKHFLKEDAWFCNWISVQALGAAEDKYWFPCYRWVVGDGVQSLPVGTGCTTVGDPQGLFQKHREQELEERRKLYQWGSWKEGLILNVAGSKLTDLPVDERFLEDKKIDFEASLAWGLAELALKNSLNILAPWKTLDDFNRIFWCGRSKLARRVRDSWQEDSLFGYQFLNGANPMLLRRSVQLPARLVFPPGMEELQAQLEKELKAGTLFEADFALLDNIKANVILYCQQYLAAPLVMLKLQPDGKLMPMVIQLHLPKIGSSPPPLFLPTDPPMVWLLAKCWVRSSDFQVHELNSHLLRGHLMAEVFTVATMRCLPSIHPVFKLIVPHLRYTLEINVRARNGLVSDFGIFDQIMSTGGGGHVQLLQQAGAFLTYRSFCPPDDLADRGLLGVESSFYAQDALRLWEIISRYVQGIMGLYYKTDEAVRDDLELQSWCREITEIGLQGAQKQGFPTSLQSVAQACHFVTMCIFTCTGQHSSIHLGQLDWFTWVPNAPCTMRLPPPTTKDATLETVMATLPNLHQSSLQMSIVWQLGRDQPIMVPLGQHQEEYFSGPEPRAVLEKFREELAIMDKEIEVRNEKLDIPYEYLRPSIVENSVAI

Mu-type opioid receptor = Mu-type opioid receptor (Homo sapiens, UniProt P35372); assay: DRUGMATRIX: Opiate mu (OP3, MOP) radioligand binding (ligand: [3H] Diprenorphine); format: cell membranes, CHO-K1, Membrane; conditions: cho-k1; Not Active = under 50% inhibition at 10 µM
Chain of Mu-type opioid receptor (P35372 whole entry): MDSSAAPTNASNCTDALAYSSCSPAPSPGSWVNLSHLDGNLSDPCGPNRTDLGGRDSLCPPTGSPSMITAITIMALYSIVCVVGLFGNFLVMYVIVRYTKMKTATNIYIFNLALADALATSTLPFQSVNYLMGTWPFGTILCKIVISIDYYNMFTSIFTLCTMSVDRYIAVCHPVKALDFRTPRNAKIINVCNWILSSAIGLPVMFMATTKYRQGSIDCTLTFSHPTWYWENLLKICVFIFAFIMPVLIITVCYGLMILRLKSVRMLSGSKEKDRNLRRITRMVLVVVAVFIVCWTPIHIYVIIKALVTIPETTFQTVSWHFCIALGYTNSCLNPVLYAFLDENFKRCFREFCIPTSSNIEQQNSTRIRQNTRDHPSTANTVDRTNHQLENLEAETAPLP

[3] = target: T2, Nitric oxide synthase, inducible (Mus musculus, UniProt P29477); design: species or system Escherichia coli;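 note: inhibition of iNOS enzyme activity measured with L-arginine as substrate; in other assays of this panel Not Active means under 50% inhibition at 10 µM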
T2 sequence (P29477 whole entry): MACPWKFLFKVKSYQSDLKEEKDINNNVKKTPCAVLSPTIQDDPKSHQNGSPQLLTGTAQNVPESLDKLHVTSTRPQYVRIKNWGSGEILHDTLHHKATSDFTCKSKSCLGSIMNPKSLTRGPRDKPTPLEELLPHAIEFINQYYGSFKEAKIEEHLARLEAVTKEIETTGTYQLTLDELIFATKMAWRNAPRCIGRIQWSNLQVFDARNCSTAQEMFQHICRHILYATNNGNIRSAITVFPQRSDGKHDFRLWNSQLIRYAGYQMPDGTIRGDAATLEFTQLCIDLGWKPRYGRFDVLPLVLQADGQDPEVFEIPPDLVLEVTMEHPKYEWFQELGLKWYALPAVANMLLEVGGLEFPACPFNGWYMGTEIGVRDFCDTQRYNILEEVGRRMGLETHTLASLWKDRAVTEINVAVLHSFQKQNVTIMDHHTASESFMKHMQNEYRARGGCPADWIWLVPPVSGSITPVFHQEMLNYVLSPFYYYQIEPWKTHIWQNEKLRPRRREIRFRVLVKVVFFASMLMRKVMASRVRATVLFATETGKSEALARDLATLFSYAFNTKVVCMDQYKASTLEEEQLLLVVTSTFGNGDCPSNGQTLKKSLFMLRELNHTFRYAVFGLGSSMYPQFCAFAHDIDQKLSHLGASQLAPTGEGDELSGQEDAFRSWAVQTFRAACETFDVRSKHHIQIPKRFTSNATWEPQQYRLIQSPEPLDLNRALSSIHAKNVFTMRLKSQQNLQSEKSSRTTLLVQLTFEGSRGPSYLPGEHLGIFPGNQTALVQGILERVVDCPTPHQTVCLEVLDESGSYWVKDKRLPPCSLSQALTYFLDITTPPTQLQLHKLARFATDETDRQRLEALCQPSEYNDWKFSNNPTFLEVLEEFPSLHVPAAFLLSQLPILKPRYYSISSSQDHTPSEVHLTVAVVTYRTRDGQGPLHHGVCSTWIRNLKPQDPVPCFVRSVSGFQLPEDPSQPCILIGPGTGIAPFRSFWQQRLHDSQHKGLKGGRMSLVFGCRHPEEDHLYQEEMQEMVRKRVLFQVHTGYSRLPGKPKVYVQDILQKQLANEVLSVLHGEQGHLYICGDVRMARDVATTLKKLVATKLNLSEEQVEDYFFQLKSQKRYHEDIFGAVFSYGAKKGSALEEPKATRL

[4] = target: T3, Cysteinyl leukotriene receptor 1 (Homo sapiens, UniProt Q9Y271); format: cell membranes, CHO-K1, Membrane; conditions: cho-k1; note: in other assays of this panel Not Active means under 50% inhibition at 10 µM
T3 sequence (Q9Y271 whole entry): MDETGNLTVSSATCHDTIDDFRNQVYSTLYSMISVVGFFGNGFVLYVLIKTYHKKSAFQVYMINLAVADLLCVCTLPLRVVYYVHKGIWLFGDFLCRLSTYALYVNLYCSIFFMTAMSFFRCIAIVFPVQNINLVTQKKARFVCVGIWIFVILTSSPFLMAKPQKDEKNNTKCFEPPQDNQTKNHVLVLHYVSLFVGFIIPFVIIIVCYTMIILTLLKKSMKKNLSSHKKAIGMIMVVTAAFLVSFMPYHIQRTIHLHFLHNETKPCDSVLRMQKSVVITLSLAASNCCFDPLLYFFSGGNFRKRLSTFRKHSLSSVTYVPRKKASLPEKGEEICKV

[5] = DRUGMATRIX: Phorbol Ester radioligand binding (ligand: [3H] PDBu); format: cell membranes, Mus musculus, ICR, Brain, Membrane; conditions: Not Active = under 50% inhibition at 10 µM
[6] = target: Protein phosphatase 3 catalytic subunit alpha (Homo sapiens, UniProt Q08209); design: species or system Escherichia coli;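 note: inhibition of calcineurin (PP2B) enzyme activity, measured with DiFMUP as the substrate; in other assays of this panel Not Active means under 50% inhibition at 10 µM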
[7] = target: T4, C-C chemokine receptor type 4 (Homo sapiens, UniProt P51679); format: cell membranes, Membrane; conditions: chem-1; note: in other assays of this panel Not Active means under 50% inhibition at 10 µM
T4 sequence (P51679 whole entry): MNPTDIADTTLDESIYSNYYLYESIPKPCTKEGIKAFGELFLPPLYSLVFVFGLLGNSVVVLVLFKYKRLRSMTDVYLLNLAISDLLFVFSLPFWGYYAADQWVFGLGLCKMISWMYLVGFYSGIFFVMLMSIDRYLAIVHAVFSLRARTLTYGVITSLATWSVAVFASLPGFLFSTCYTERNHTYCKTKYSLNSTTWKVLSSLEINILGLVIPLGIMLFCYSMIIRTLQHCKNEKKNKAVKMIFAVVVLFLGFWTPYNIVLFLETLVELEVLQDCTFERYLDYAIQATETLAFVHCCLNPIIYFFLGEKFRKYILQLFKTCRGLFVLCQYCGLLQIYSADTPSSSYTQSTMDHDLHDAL

Melanocortin receptor 5 = Melanocortin receptor 5 (Homo sapiens, UniProt P33032); format: cell membranes, HEK293, Membrane; conditions: hek293; note: in other assays of this panel Not Active means under 50% inhibition at 10 µM
Chain of Melanocortin receptor 5 (P33032 whole entry): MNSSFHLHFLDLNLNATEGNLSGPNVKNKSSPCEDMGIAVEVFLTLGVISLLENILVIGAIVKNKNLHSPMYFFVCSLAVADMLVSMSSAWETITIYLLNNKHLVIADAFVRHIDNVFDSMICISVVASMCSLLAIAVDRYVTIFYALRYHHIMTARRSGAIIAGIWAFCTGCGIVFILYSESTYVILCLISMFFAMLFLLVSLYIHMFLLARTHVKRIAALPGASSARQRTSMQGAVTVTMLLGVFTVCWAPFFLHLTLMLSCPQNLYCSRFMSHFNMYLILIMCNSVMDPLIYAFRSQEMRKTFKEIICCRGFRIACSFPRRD

CCCc1cc(=O)[nH]c(=S)[nH]1 [PROPYLTHIOURACIL]
Not Active: IC50 [1] | Ki [1] | IC50 [2] | IC50 (Mu-type opioid receptor) | IC50 [3] | IC50 [4] | IC50 [5] | Ki [5] | IC50 [6] | IC50 [7] | IC50 (Melanocortin receptor 5)

COc1ccc(CN(CCN(C)C)c2ccccn2)cc1 [PYRILAMINE]
Not Active: IC50 [1] | Ki [1] | IC50 [2] | IC50 (Mu-type opioid receptor) | IC50 [3] | IC50 [4] | IC50 [5] | Ki [5] | IC50 [6] | IC50 [7] | IC50 (Melanocortin receptor 5)
